Measured values reported in article PMC12254355 (Nature Communications, 2025).
Ends that are not written are not given here.

Assays:
[1] = test system: HEK293T cells; details: for CC50 vs HEK293T cells (source data of Figure 4a): 24 h
[2] = test system: E. coli AIC222 (polymyxin resistant; colistin-resistant strain); details: 24 h
[3] = test system: K. pneumoniae ATCC 13883; details: ATCC 13883, 24 h
[4] = test system: E. faecalis ATCC 700802 - VRE; details: ATCC 700802, 24 h
[5] = test system: E. faecium ATCC 700221 - VRE; details: ATCC 700221, 24 h
[6] = test system: human red blood cells; details: pH 7.4
[7] = test system: E. coli AIC221; details: AIC221, 24 h
[8] = test system: E. coli ATCC 11775; details: ATCC 11775, 24 h
[9] = test system: P. aeruginosa PAO1; details: PAO1, 24 h
[10] = test system: S. aureus ATCC 12600; details: ATCC 12600, 24 h
[11] = test system: P. aeruginosa PA14; details: PA14, 24 h
[12] = test system: S. aureus ATCC BAA-1556 - MRSA; details: ATCC BAA-1556, 24 h
[13] = test system: A. baumannii ATCC 19606; details: ATCC 19606, 24 h
[14] = test system: 11 clinically relevant pathogens; assay type: cell-based

Row | Sequence | CC50 vs HEK293T cells [1] [µM] | SIcytotoxicity [1] | Minimal Inhibitory Concentration, E. coli AIC222 (-) [2] [µmol/L] | Minimal Inhibitory Concentration, K. pneumoniae ATCC 13883 (-) [3] [µmol/L] | Minimal Inhibitory Concentration, E. faecalis ATCC 700802 - VRE (+) [4] [µmol/L] | Minimal Inhibitory Concentration, E. faecium ATCC 700221 - VRE (+) [5] [µmol/L] | HC50 [6] | Minimal Inhibitory Concentration, E. coli AIC221 (-) [7] [µmol/L] | CC50 vs HEK293T cells (source data of Figure 4a) [1] [µM] | Minimal Inhibitory Concentration, E. coli ATCC 11775 (-) [8] [µmol/L] | Minimal Inhibitory Concentration, P. aeruginosa PAO1 (-) [9] [µmol/L] | Minimal Inhibitory Concentration, S. aureus ATCC 12600 (+) [10] [µmol/L] | Minimal Inhibitory Concentration, P. aeruginosa PA14 (-) [11] [µmol/L] | Minimal Inhibitory Concentration, S. aureus ATCC BAA-1556 - MRSA (+) [12] [µmol/L] | Minimal Inhibitory Concentration, A. baumannii ATCC 19606 (-) [13] [µmol/L] | Antimicrobial activity against the pathogen panel (in words) [14]
1 | KFLARLVFRKFILL [UniprotKB-13] | 27 | 13.4 | 32 | 64 | 32 | 2 | 455.9 | 8 | – | – | – | – | – | – | – | –
2 | KFSVFSKILRSIAKVF [Arachnoserver-18] | – | 3.1 | – | – | – | 8 | 53.5 | 4 | 12.34 | 4 | 32 | 16 | 16 | 16 | 8 | –
3 | KLLKIGLKSFARVLKKVL [Arachnoserver-1] | – | 6.6 | – | 8 | – | 16 | 82.7 | 4 | 26.22 | 8 | – | 16 | 8 | 16 | 16 | –
4 | KLSGISKVLRAIAKFFK [Arachnoserver-28] | 6 | 0.8 | – | 32 | – | 8 | 38.2 | 32 | 6.347 | 64 | 32 | 32 | 8 | 32 | 32 | –
5 | KRLRAKMLNSKFIKLIKR [Conoserver-1] | – | 5.2 | – | – | – | 32 | 1.085e+083 | 16 | – | – | 32 | – | 32 | 32 | – | –
6 | LLHFSIWRSTVLRK [ISOB-4] | – | 9.7 | – | – | 64 | 16 | 24308.0 | – | – | – | – | – | – | – | – | –
7 | RGLAKLLKIGLKSFARVLKK [Arachnoserver-12] | 8 | 2.1 | – | 32 | – | 8 | 40.1 | 4 | 8.419 | 16 | 16 | 64 | 8 | 64 | 32 | –
8 | SKKQIRLYLLKYYGKKLFKKRPK [Arachnoserver-19] | – | 2.1 | 32 | – | – | 8 | 163.3 | 32 | 16.68 | – | 16 | – | 16 | – | – | –
9 | WLGSALKIGAKLL [UniprotKB-2] | 8 | – | – | – | – | – | 5.529e+042 | – | 8.278 | – | – | – | – | – | – | no activity
